From article PMC7775144, “Enzyme Inhibitory Kinetics and Molecular Docking Studies of Halo-Substituted Mixed Ester/Amide-Based Derivatives as Jack Bean Urease Inhibitors” (BioMed Research International, 2020)
“Also recorded” adds a separate entry of the source. Read-outs that look alike come from different tables or passages of the source.

Legend:
jack bean urease [1] = target: T1, jack bean urease (Canavalia ensiformis, UniProt P07374); test: biochemical; format: biochemical
Protocol: The inhibitory effects on urease activity were done based on the Weatherburn method, using the indophenol scheme by determining the amount of ammonia produced. Briefly, 20 μL of jack bean urease enzyme (0.135 units) and 20 μL of the tested compounds were taken in 50 μL buffer and were incubated for 30 min. Temperature was kept at 37°C in a 96-well plate reader. The buffer solution was made by 0.01 molar K2HPO4/KH2PO4, 1 mM EDTA, 100 mM urea, and 0.01 M LiCl; pH was maintained at 7.0. Then, 50 μL of phenol reagent (1% w/v phenol and 0.005% w/v sodium nitroprusside) was added in 50 μL of alkali reagent in each well. The alkali reagent was prepared by 0.5% w/v NaOH and 0.1% NaOCl. Absorbance was measured at 625 nm using OPTIMax, a tunable microplate reader, after 10 min interval in a triplicate manner. The thiourea was used as a standard jack bean urease inhibitor. The data has been analyzed using software, GraphPad Prism, and statistical analysis (SD) was performed by using SigmaPlot software to get SD values of the bioassay results.

jack bean urease [2] = target: T1, jack bean urease; test: Kinetic study of jack bean urease inhibition (Lineweaver-Burk plots); format: biochemical; parameters: 1/Vmax: unit not given here
Protocol: The derivative 4b was selected on the basis of its high activity for the determination of its kinetic mechanism on jack bean urease. The enzyme inhibition EI and enzyme-substrate inhibition ESI constants for compound 4b have been determined. The inhibitor concentration used in the kinetic experiments was 0.00, 0.0008, and 0.0016 μM while concentration of substrate was 0.0, 0.1, 0.2, 0.3, and 0.4 mM. The kinetic mechanism was determined by plotting of 1/V versus 1/[S] in the presence of inhibitor concentrations which gave a series of straight lines as shown in Figure 3. […] The EI dissociation constant (Ki) and ESI dissociation constant (Ki′) for compound 4b have also been determined from Lineweaver-Burk plots.

jack bean urease [3] = target: T1, jack bean urease; details: jack bean urease inhibitors already reported; ref [35], [36]; cited from earlier work
[4] = n = 3, 30 min, 37°C, pH 7.0, 100 mM urea, read-out: Urease (jack bean) inhibition IC50 ± SD

T1 sequence (P07374 whole entry, looked up): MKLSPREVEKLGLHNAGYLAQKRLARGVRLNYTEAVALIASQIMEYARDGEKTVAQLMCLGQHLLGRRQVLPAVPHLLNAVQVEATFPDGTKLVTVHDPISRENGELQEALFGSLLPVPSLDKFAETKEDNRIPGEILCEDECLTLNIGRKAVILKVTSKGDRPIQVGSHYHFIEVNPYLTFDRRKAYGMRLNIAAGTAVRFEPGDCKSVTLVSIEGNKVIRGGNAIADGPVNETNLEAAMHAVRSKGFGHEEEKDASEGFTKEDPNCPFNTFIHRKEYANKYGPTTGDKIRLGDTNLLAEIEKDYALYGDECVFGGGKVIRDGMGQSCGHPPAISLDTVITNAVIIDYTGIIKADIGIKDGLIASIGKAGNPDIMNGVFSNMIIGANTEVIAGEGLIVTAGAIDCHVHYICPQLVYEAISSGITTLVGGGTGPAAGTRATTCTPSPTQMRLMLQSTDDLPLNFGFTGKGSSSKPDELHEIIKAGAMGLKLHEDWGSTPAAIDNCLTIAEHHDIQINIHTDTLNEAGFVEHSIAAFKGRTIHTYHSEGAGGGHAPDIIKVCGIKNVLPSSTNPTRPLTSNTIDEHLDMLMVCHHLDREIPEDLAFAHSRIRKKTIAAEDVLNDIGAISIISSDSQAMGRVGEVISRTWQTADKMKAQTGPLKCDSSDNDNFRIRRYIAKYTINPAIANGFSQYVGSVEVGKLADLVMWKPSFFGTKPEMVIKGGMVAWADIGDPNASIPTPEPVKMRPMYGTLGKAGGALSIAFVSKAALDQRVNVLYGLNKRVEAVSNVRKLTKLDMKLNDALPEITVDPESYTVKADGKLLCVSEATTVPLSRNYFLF

Row | Compound | melting point [°C] | IC50 (jack bean urease [1]) [nM] | IC50 (jack bean urease [1]; [4]) [nM] | also measured
1 | CC(C)c1ccc(NC(=O)COC(=O)c2ccccc2I)cc1 [4f, 2-((4-Isopropylphenyl)amino)-2-oxoethyl 2-Iodobenzoate] | 91 to 92 | 31.2 ± 1.1 | – | –
2 | CC(C)c1ccc(NC(=O)COC(=O)c2ccccc2Br)cc1 [4d, 2-((4-Isopropylphenyl)amino)-2-oxoethyl 2-Bromobenzoate] | 89 to 90 | 3.8 ± 0.2 | – | –
3 | CC(C)c1ccc(NC(=O)COC(=O)c2ccc(Cl)c(Cl)c2)cc1 [4c, 2-((4-Isopropylphenyl)amino)-2-oxoethyl 3,4-Dichlorobenzoate] | 107 to 108 | 18.2 ± 0.6 | – | –
4 | 2-((5-Isopropyl-2-methyl phenyl) Amino)-2-oxoethyl 3-Bromobenzoate [4j] | – | – | 2.1 ± 0.1 | times more active than derivative 4k (jack bean urease [1]; ratio of urease inhibitory activity, 4j versus 4k): 25
5 | CC(C)c1ccc(NC(=O)COC(=O)c2ccccc2Cl)cc1 [4a, 2-((4-Isopropylphenyl)amino)-2-oxoethyl 2-Chlorobenzoate] | 94 to 96 | 57.1 ± 1.9 | – | –
6 | CC(C)c1ccc(NC(=O)COC(=O)c2cccc(Br)c2)cc1 [4e, 2-((4-Isopropylphenyl)amino)-2-oxoethyl 3-Bromobenzoate] | 91 to 92 | 62.7 ± 2.1 | – | –
7 | Cc1ccc(C(C)C)cc1NC(=O)COC(=O)c1ccccc1I [4l, 2-((5-Isopropyl-2-methylphenyl) Amino)-2-oxoethyl 2-Iodobenzoate] | – | 11.5 ± 3.9 | – | –
8 | CC(C)c1ccc(NC(=O)COC(=O)c2cccc(Cl)c2)cc1 [4b, 2-((4-Isopropylphenyl)amino)-2-oxoethyl 3-Chlorobenzoate] | 96 to 98 | 1.6 ± 0.2 | – | Ki (jack bean urease [2]): 0.7 nM; Inhibition type (jack bean urease [2]; Lineweaver-Burk plots): mixed type of inhibitor; also recorded: mixed type of inhibition; Ki′ (ESI dissociation constant) (jack bean urease [2]; from Lineweaver-Burk plots): 1.8 nM; 1/Vmax (jack bean urease [2]; inhibitor dose 0.0016 μM, substrate urea): 0.00088
9 | 2-((5-Isopropyl-2-methyl phenyl) Amino)-2-oxoethyl 2-Bromobenzoate [4i] | – | – | 21.1 ± 0.7 | –
10 | Cc1ccc(C(C)C)cc1NC(=O)COC(=O)c1ccccc1Cl [4g, 2-((5-Isopropyl-2-methylphenyl) Amino)-2-oxoethyl 2-Chloro Benzoate] | 115 to 116 | 3.8 ± 0.2 | – | –
11 | NC(N)=S [Thiourea, thiourea, reference compound] | – | – | 472 ± 135 | –
12 | 2-((5-Isopropyl-2-methyl phenyl) Amino)-2-oxoethyl 3,4-Dichlorobenzoate [4k] | – | – | 50.1 ± 1.7 | –
13 | Cc1ccc(C(=O)NC(=S)Nc2coc(=O)c3ccccc23)cc1 [compound 2] | – | – | – | IC50 (jack bean urease [3]): 6.5 nM
